As a reminder, the IC50 is the midpoint of a concentration-inhibition curve.

The test system of one data set is HeLa cells. Description: MTT cytotoxicity assay. It counts as cell-based, human. From the text:
FIGS. 11A-C are bar graphs showing cytotoxicity profiles of targeted LND nanoparticles, nontargeted LND nanoparticles, free LND (A); targeted α-TOS nanoparticles, nontargeted α-TOS nanoparticles, free α-TOS in HeLa cells (B); and empty targeted nanoparticles, and empty nontargeted nanoparticles in HeLa cells (C).
The selectivity and efficiency of LND and α-TOS against cancer cells depend on their ability to target the mitochondria of cells. To evaluate the efficacy of our targeted nanoparticles in delivering LND and α-TOS, we performed MTT assays in HeLa cells. […] Preferential localization in the target organelle accounts for the enhanced cytotoxicity of both LND and α-TOS encapsulated in the targeted nanoparticles.
(In general: Tetrazolium assays rely on reduction of a dye to a coloured formazan, in cell work by metabolically active cells.)

The test system of a further data set is 3T3-L1 cells. The note with it: 3T3-L1, 100 μM.

SMILES strings stand for the structures.

Protocol for 3T3-L1 cells: To examine whether encapsulation of 2,4-DNP in targeted nanoparticles can suppress the induced differentiation of 3T3-L1 preadipocytes at a low dosage that is insufficient to exert cytotoxicity, we continuously exposed 3T3-L1 cells to 1 μM, 4 μM, 25 μM, and 100 μM targeted 2,4-DNP nanoparticles (FIGS. 12A-D and 13) during the differentiation period for 7 d, and evaluated cell viability and intracellular lipid accumulation. Nontargeted 2,4-DNP nanoparticles and free 2,4-DNP were used as controls.

Turning to `Cc1c(C)c2c(c(C)c1OC(=O)CCC(=O)O)CC[C@@](C)(CCC[C@H](C)CCC[C@H](C)CCCC(C)C)O2` [free α-TOS, α-tocopheryl succinate], the IC50 in the data set with HeLa cells was 381 ± 5 nM.

Turning to `O=[N+]([O-])c1ccc(O)c([N+](=O)[O-])c1` [Free 2,4-DNP, 2,4-dinitrophenol], in the data set on 3T3-L1 cells, the cellular toxicity result is listed as “demonstrated cellular toxicity”.
